In the supplement of paper PMC10627819:

Experiments:
B. subtilis 168 [1] = assay: fitness (endpoint OD595 vs no drug) (fraction); higher = more growth
Method in brief: (§1)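 Plates with 384 wells were inoculated at OD595 0.01 using 30 µl of TSB, LB Lennox or CY, or 55 µl for S. pneumoniae. Incubation was at 37 °C, with OD595 measured every 30 min for 14 h. Fitness is the stationary-phase transition optical density over the robust mean of no-drug control wells, after first-reading background subtraction; it is capped at 1.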

S. pneumoniae D39V [2] = assay: as above
Method in brief: as §1

B. subtilis 168 [3] = assay: Bliss interaction score (quartile over a dose matrix) (fitness difference); higher = more antagonism (negative = synergy)
Method in brief: (§2)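 The Bliss score takes observed fitness and subtracts the expected fitness, calculated as a product of single-drug fitness values. Those single-drug values were inferred from the combination data. Fitness is OD595 at entry into stationary phase divided by the plate's robust no-drug mean, capped at 1, and the score is summarised by quartiles across technical, biological and donor/recipient replicates.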

S. aureus DSM 20231 = assay: as above
Method in brief: as §2

S. aureus Newman = assay: as above
Method in brief: as §2

S. pneumoniae D39V [4] = assay: as above
Method in brief: as §2
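Wherever Bliss interaction score (quartile over a dose matrix) is given: first quartile when negative (synergy) and third quartile when positive (antagonism).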

CO/N=C(\C(=O)N[C@@H]1C(=O)N2C(C(=O)O)=C(COC(C)=O)CS[C@H]12)c1csc(N)n1 [Cefotaxime] + CCC(C)C1C(=O)NC(=C)C(=O)NC(C(=O)NC(CSCC(C(=O)N1)NC(=O)/C(=C/C)/NC(=O)C(C(C)CC)N)C(=O)NC2C(SCC(NC(=O)CNC(=O)C3CCCN3C2=O)C(=O)NC(CCCCN)C(=O)NC4C(SCC(NC(=O)CNC(=O)C(NC(=O)C(NC(=O)C(NC(=O)CNC4=O)C)CC(C)C)CCSC)C(=O)NC(CC(=O)N)C(=O)NC(CCSC)C(=O)NC(CCCCN)C(=O)NC5C(SCC6C(=O)NC(C(=O)NC(CSC(C(C(=O)N6)NC(=O)C(NC5=O)C)C)C(=O)NC(CO)C(=O)NC(C(C)CC)C(=O)NC(CC7=CN=CN7)C(=O)NC(C(C)C)C(=O)NC(=C)C(=O)NC(CCCCN)C(=O)O)CC8=CN=CN8)C)C)C)CC(C)C [Nisin]
B. subtilis 168 [1], one replicate, main component drawn
Settings | fitness
first compound 0.00775 µg/mL, partner 0.5 µg/mL | 0.825
first compound 0.00775 µg/mL, partner 1 µg/mL | 0.74
first compound 0.00775 µg/mL, partner 2 µg/mL | 0.508
first compound 0.0155 µg/mL, partner 0.5 µg/mL | 0.704
first compound 0.0155 µg/mL, partner 1 µg/mL | 0.605
first compound 0.0155 µg/mL, partner 2 µg/mL | 0.434
first compound 0.031 µg/mL, partner 0.5 µg/mL | 0.513
first compound 0.031 µg/mL, partner 1 µg/mL | 0.432
first compound 0.031 µg/mL, partner 2 µg/mL | 0.251
first compound 0.0625 µg/mL, partner 1.25 µg/mL | 0.397
first compound 0.0625 µg/mL, partner 1.6 µg/mL | 0.18
first compound 0.0625 µg/mL, partner 2.5 µg/mL | 0.0546
first compound 0.0625 µg/mL, partner 3.2 µg/mL | 0.0399
first compound 0.0625 µg/mL, partner 5 µg/mL | 0.0497
first compound 0.0625 µg/mL, partner 6.4 µg/mL | 0.0827
first compound 0.125 µg/mL, partner 1.25 µg/mL | 0.176
first compound 0.125 µg/mL, partner 1.6 µg/mL | 0.0847
first compound 0.125 µg/mL, partner 2.5 µg/mL | 0.0355
first compound 0.125 µg/mL, partner 3.2 µg/mL | 0.0507
first compound 0.125 µg/mL, partner 5 µg/mL | 0.0352
first compound 0.125 µg/mL, partner 6.4 µg/mL | 0.0748
first compound 0.25 µg/mL, partner 1.25 µg/mL | 0.109
first compound 0.25 µg/mL, partner 1.6 µg/mL | 0.0456
first compound 0.25 µg/mL, partner 2.5 µg/mL | 0.0476
first compound 0.25 µg/mL, partner 3.2 µg/mL | 0.0432
first compound 0.25 µg/mL, partner 5 µg/mL | 0.0316
first compound 0.25 µg/mL, partner 6.4 µg/mL | 0.0433
first compound 0.5 µg/mL, partner 0.5 µg/mL | 0.105
first compound 0.5 µg/mL, partner 1 µg/mL | 0.0334
first compound 0.5 µg/mL, partner 2 µg/mL | 0.0461
first compound 0.5 µg/mL, partner 4 µg/mL | 0.0435
first compound 0.5 µg/mL, partner 8 µg/mL | 0.0411
first compound 0.5 µg/mL, partner 16 µg/mL | 0.025
first compound 1 µg/mL, partner 0.5 µg/mL | 0.0988
first compound 1 µg/mL, partner 1 µg/mL | 0.0354
first compound 1 µg/mL, partner 2 µg/mL | 0.0395
first compound 1 µg/mL, partner 4 µg/mL | 0.0388
first compound 1 µg/mL, partner 8 µg/mL | 0.0243
first compound 1 µg/mL, partner 16 µg/mL | 0.0126
first compound 2 µg/mL, partner 0.5 µg/mL | 0.0708
first compound 2 µg/mL, partner 1 µg/mL | 0.0361
first compound 2 µg/mL, partner 2 µg/mL | 0.0552
first compound 2 µg/mL, partner 4 µg/mL | 0.0578
first compound 2 µg/mL, partner 8 µg/mL | 0.0592
first compound 2 µg/mL, partner 16 µg/mL | 0.0351

fitness, S. pneumoniae D39V [2], main component drawn
Settings | partner 0.4275 µg/mL | partner 0.855 µg/mL | partner 1.6 µg/mL | partner 1.71 µg/mL | partner 3.2 µg/mL | partner 6.4 µg/mL
first compound 0.0018 µg/mL | 0.995 | ≥ 1 | 0.0249 | 0.0807 | 0.0291 | 0.0188
first compound 0.0035 µg/mL | 0.896 | 0.936 | 0.0152 | 0.0712 | 0.0408 | 0.0145
first compound 0.007 µg/mL | 0.835 | 0.577 | 0.0188 | 0.0886 | 0.0158 | 0.0145

main component drawn
Settings | Bliss interaction score
B. subtilis 168 [3] | -0.0392
S. aureus DSM 20231 | -0.199
S. aureus Newman | -0.0293
S. pneumoniae D39V [4] | -0.051

C[C@H]1c2cccc(O)c2C(=O)C2=C(O)[C@]3(O)C(=O)C(C(N)=O)=C(O)[C@@H](N(C)C)[C@@H]3[C@@H](O)[C@@H]21 [Doxycycline] + COc1c(N2C[C@@H]3CCCN[C@@H]3C2)c(F)cc2c(=O)c(C(=O)O)cn(C3CC3)c12 [Moxifloxacin]
Settings | fitness
B. subtilis 168 [1], first compound 0.02 µg/mL, partner 0.0312 µg/mL | 0.0633
B. subtilis 168 [1], first compound 0.02 µg/mL, partner 0.0625 µg/mL | 0.0369
B. subtilis 168 [1], first compound 0.02 µg/mL, partner 0.125 µg/mL | 0.0526
B. subtilis 168 [1], first compound 0.02 µg/mL, partner 2 µg/mL | 0.0252
B. subtilis 168 [1], first compound 0.02 µg/mL, partner 4 µg/mL | 0.0301
B. subtilis 168 [1], first compound 0.02 µg/mL, partner 8 µg/mL | 0.061
B. subtilis 168 [1], first compound 0.04 µg/mL, partner 0.0312 µg/mL | 0.0435
B. subtilis 168 [1], first compound 0.04 µg/mL, partner 0.0625 µg/mL | 0.0347
B. subtilis 168 [1], first compound 0.04 µg/mL, partner 0.125 µg/mL | 0.0489
B. subtilis 168 [1], first compound 0.04 µg/mL, partner 2 µg/mL | 0.0204
B. subtilis 168 [1], first compound 0.04 µg/mL, partner 4 µg/mL | 0.013
B. subtilis 168 [1], first compound 0.04 µg/mL, partner 8 µg/mL | 0.0253
B. subtilis 168 [1], first compound 0.08 µg/mL, partner 0.0625 µg/mL | 0.03
B. subtilis 168 [1], first compound 0.08 µg/mL, partner 0.125 µg/mL | 0.0215
B. subtilis 168 [1], first compound 0.08 µg/mL, partner 2 µg/mL | 0.0234
B. subtilis 168 [1], first compound 0.08 µg/mL, partner 4 µg/mL | 0.0247
B. subtilis 168 [1], first compound 0.08 µg/mL, partner 8 µg/mL | 0.0278
S. pneumoniae D39V [2], first compound 0.0155 µg/mL, partner 0.0037 µg/mL | 0.791
S. pneumoniae D39V [2], first compound 0.0155 µg/mL, partner 0.005 µg/mL | 0.918
S. pneumoniae D39V [2], first compound 0.0155 µg/mL, partner 0.0075 µg/mL | 0.838
S. pneumoniae D39V [2], first compound 0.0155 µg/mL, partner 0.01 µg/mL | 0.919
S. pneumoniae D39V [2], first compound 0.0155 µg/mL, partner 0.015 µg/mL | 0.857
S. pneumoniae D39V [2], first compound 0.0155 µg/mL, partner 0.02 µg/mL | 0.834
S. pneumoniae D39V [2], first compound 0.031 µg/mL, partner 0.005 µg/mL | 0.886
S. pneumoniae D39V [2], first compound 0.031 µg/mL, partner 0.01 µg/mL | 0.896
S. pneumoniae D39V [2], first compound 0.031 µg/mL, partner 0.02 µg/mL | 0.783
S. pneumoniae D39V [2], first compound 0.062 µg/mL, partner 0.005 µg/mL | 0.807
S. pneumoniae D39V [2], first compound 0.062 µg/mL, partner 0.01 µg/mL | 0.856
S. pneumoniae D39V [2], first compound 0.062 µg/mL, partner 0.02 µg/mL | 0.807

fitness, S. pneumoniae D39V [2], one replicate
Settings | first compound 0.003875 µg/mL | first compound 0.00775 µg/mL | first compound 0.031 µg/mL | first compound 0.062 µg/mL
partner 0.0037 µg/mL | 0.939 | 0.881 | 0.692 | 0.352
partner 0.0075 µg/mL | 0.952 | 0.894 | 0.806 | 0.679
partner 0.015 µg/mL | 0.909 | 0.874 | 0.721 | 0.59

Settings | Bliss interaction score
B. subtilis 168 [3] | 0.0361
S. aureus DSM 20231 | 0.0965
S. aureus Newman | 0.036
S. pneumoniae D39V [4] | -0.0559
